Tested on: patients with headache/migraine
Test: Blink reflex measuring device: blink-associated parameters before and after treatment, by treatment modality
Type: in vivo, human
Source text: In embodiments, the one or more blink-associated parameters are selected from: • (a) latency, optionally in milliseconds, comprising a time differential between stimulation and eyelid movement, e.g., one or more of upper eyelid or lower eyelid; • (b) differential latency, optionally in milliseconds, comprising a time differential between the start of ipsilateral eye movement and the start of contralateral eye movement; • (c) delta 30, comprising a time difference between ipsilateral eye and contralateral eye movement; • (d) eyelid excursion, optionally in pixels, comprising a distance traveled by the eyelid from the tonic lid position to closed position; • (e) initial lid velocity, optionally in pixels/msec, comprising an average eyelid speed following start of eyelid movement, e.g., the first about 5 frames, the first about 7 frames, or the first about 10 frames; • (f) time to close, optionally in log scale, comprising a time for lid to travel from tonic lid position to the closed position; • (g) time to open, optionally in log scale, comprising a time for lid to travel from closed position back to tonic lid position; • (h) time under threshold, optionally in log scale, comprising a time that the eyelid spends below the threshold position; • (i) number of oscillations, comprising cycles of up and down upper eyelid movement after a stimulated blink; • (j) total blink time, optionally in log scale, comprising a time from start of eyelid movement until it returns to its tonic lid position; • (k) number of blinks; • (l) blink rate, optionally per minute; • (m) area under curve, optionally in pixels; • (n) maximum closing velocity, optionally in […], comprising a maximum velocity during eyelid closure; • (o) maximum opening velocity, optionally in […], comprising a maximum velocity during eyelid opening; and • (p) time to first oscillation, optionally in log scale, comprising the elapsed time between the eyelid returning within threshold of a tonic position for a stimulated blink and the onset of the next unstimulated blink.
In this study, a population of male and female migraine patients are assessed for blink reflex response using the blink reflex measuring device. The patients in this study are tested when they visit the doctor during their routine office visits and/or before and after a doctor prescribed therapeutic intervention.
Blink reflex measuring device was used for collecting multiple blink-associated parameters from patients with headache/migraine before and after treatment undergoing treatment.
Blink reflex measuring device was used for collecting multiple blink-associated parameters from patients with headache/migraine before and after undergoing different treatments. The different treatments were intravenous (IV) ketamine infusion therapy, sphenopalatine ganglion (SPG) block+peripheral nerve block (PNB), and IV ketamine+SPG+PNB. The results are shown in TABLE 2, FIGS. 34-6D and FIG. 7.
TABLES 4-6 show the variable changes based on right and left eye by treatment modality: intravenous (IV) ketamine infusion therapy (TABLE 4); sphenopalatine ganglion (SPG) block+peripheral nerve block (PNB) (TABLE 5); and IV ketamine+SPG+PNB (TABLE 6). It is important to note that whereas FIGS. 34-6D and FIG. 7 show the changes based on treatment modality of each variable and show the overall changes predicated on both right and left eye, TABLES 4-6 break down the variables by right and left eye changes.

[1] = left eye, post treatment, Table 4
[2] = post-treatment average, patients with headache/migraine, by treatment modality
[3] = right eye, post treatment, Table 4

CNC1(c2ccccc2Cl)CCCCC1=O (stereo not drawn) [ketamine]
Blink Rate, Left Eye Post Tx (left eye, post treatment): 89.415 per min
Blinks, Left Eye Post Tx (left eye, post treatment): 5.945 qty
Delta 30, Left Eye Post Tx (left eye, post treatment): 9.328 ms
Differential Latency, Left Eye Post Tx (left eye, post treatment): 4.625 ms
Excursions, Left Eye Post Tx (left eye, post treatment): 91.548 pixels
Latency, Left Eye Post Tx (left eye, post treatment): 53.958 ms
Oscillations Rate, Left Eye Post Tx (left eye, post treatment): 2.293 per min
Oscillations, Left Eye Post Tx (left eye, post treatment): 9.914 no.
Time to Close, Left Eye Post Tx (left eye, post treatment): 27.686 ms
Time to First Oscillation, Left Eye Post Tx (left eye, post treatment): 7.301 Ln ms
Time to Open, Left Eye Post Tx (left eye, post treatment): 286.813 ms
Area Under the Curve, Left Eye Post Tx [1]: 10.250 pixels
Time Under 20, Left Eye Post Tx [1]: 5.228 Ln ms
Blink reflex differences pre and post treatment via Blink Reflex Measuring Device (patients having a migraine, p=0.05): Statistical differences
Area Under Curve, POST-TX AVERAGE [2]: 29522.632 pixels
Blink Rate, POST-TX AVERAGE [2]: 83.490 per min
Blinks, POST-TX AVERAGE [2]: 5.345 qty
Delta 30, POST-TX AVERAGE [2]: 7.435 ms
Differential Latency, POST-TX AVERAGE [2]: 6.145 ms
Excursion, POST-TX AVERAGE [2]: 88.575 pixels
Latency, POST-TX AVERAGE [2]: 49.827 ms
Oscillations, POST-TX AVERAGE [2]: 10.273 no.
Time Under 20, POST-TX AVERAGE [2]: 5.237 Ln ms
Time to Close, POST-TX AVERAGE [2]: 29.930 ms
Time to First Oscillation, POST-TX AVERAGE [2]: 7.412 Ln ms
Time to Open, POST-TX AVERAGE [2]: 307.108 ms
Blink Rate, Right Eye Post Tx (right eye, post treatment): 73.691 per min
Blinks, Right Eye Post Tx (right eye, post treatment): 5.170 qty
Delta 30, Right Eye Post Tx (right eye, post treatment): 5.766 ms
Differential Latency, Right Eye Post Tx (right eye, post treatment): 5.438 ms
Excursions, Right Eye Post Tx (right eye, post treatment): 92.605 pixels
Latency, Right Eye Post Tx (right eye, post treatment): 52.583 ms
Oscillations Rate, Right Eye Post Tx (right eye, post treatment): 1.966 per min
Oscillations, Right Eye Post Tx (right eye, post treatment): 8.606 no.
Time to Close, Right Eye Post Tx (right eye, post treatment): 31.119 ms
Time to First Oscillation, Right Eye Post Tx (right eye, post treatment): 7.517 Ln ms
Time to Open, Right Eye Post Tx (right eye, post treatment): 258.318 ms
Area Under the Curve, Right Eye Post Tx [3]: 10.157 pixels
Time Under 20, Right Eye Post Tx [3]: 5.099 Ln ms

From patent US20250169715A1, “USE OF BLINK REFLEX FOR HEADACHE RESPONSE MONITORING AND/OR TREATMENT SELECTION” (priority 2022, published 2025)
